In patent US12514928B2, “Herboxidiene antibody-drug conjugates and methods of use” (Eisai R&D Management Co., Ltd., priority 2018, dated 2026):
Where two headings read alike, the source gives them in different places.

How the values were obtained:
Ad2.2 pre-mRNA = assay: In vitro splicing (IVS) assay with HeLa nuclear extract, RT-qPCR of spliced product; format: biochemical; settings: payload, HELA.2, read-out: qPCR-IVS-ATS GMean IC50 (nM) Ad2.2 HELA.2
Protocol: 2.1 In Vitro Splicing (IVS)
To evaluate payload activity in a cell-free system, an in vitro splicing assay was performed. The payloads were incubated with nuclear extracts and pre-mRNA substrate minigenes.
HeLa nuclear extract preparation: HeLa S3 cell pellets were resuspended in hypotonic buffer (10 mM HEPES pH 7.9, 1.5 mM MgCl2, 10 mM KCl, 0.2 mM PMSF, 0.5 mM DTT) and the suspension was brought up to a total of 5 packed cell volume (PCV). After centrifugation, the supernatant was discarded, and the cells were brought up to 3 PCV with hypotonic buffer and incubated on ice for 10 min. Cells were lysed using a dounce homogenizer and then centrifuged. The supernatant was discarded, and the pellet was resuspended with […] packed nuclear volume (PNV) of low salt buffer (20 mM HEPES pH 7.9, 1.5 mM MgCl2, 20 mM KCl, 0.2 mM EDTA, 25% glycerol, 0.2 mM PMSF, 0.5 mM DTT), followed by 1/2 PNV of high salt buffer (same as low salt buffer except 1.4 M KCl). The nuclei were gently mixed for 30 min before centrifuging. The supernatant (nuclear extract) was then dialyzed into storage buffer (20 mM HEPES pH 7.9, 100 mM KCl, 0.2 mM EDTA, 20% glycerol, 0.2 mM PMSF, 0.5 mM DTT). Protein concentration was determined using NanoDrop 8000 UV-Vis spectrophotometer (ThermoFisher Scientific).
IVS: All Ad2-derived sequences (Pellizzoni et al. (1998) Cell 95(5):615-24) were cloned into pcDNA3.1(+) vector (Promega) using 5′ EcoRI and 3′ Xbal restriction sites. The plasmids were linearized using Xbal and used as DNA templates in in vitro transcription reactions. The FtzΔi intron-less plasmid (Luo and Reed (1999) 96(26):14937-42) was linearized using EcoRI. All RNAs were in vitro transcribed and then purified using MEGAScript T7 (Invitrogen) and MegaClear (Invitrogen) kits, respectively. For splicing reactions using Ad2 variant pre-mRNAs, […] were prepared using 8 μg nuclear extracts prepared from HeLa S3, 2 ng pre-mRNA, 0.2 ng FTZΔi, and varying concentrations of compounds or DMSO. After a 15 min pre-incubation at 30° C., 1 μL splicing activation buffer (0.5 mM ATP, 20 mM creatine phosphate, 1.6 mM MgCl2) was added, and the reactions were incubated for 90 min at 30° C. The reactions were then quenched with 13 μL DMSO, and 25 nL was used for RT-qPCR. RT-qPCR reactions were prepared using TaqMan RNA-to-CT 1-step kit (Life Technologies), RNA from splicing reactions, Ad2 (forward: […]; reverse: […]; probe: CTGTTGGGCTCGCGGTTG) and Ftz (forward: […]; reverse: […]; probe: […]) mRNA primer-probe sets. Prism 7 (Graphpad) was used for non-linear regression curve fitting of the formed spliced product and normalized to the control (DMSO) sample.

Ad2.1 = assay: In vitro splicing (IVS) assay, qPCR-IVS-ATS, Ad2.1 substrate, HELA.2; format: biochemical; settings: payload, read-out: qPCR-IVS-ATS GMean IC50 (nM) Ad2.1 HELA.2
THP1.1 = assay: Herboxidiene splicing modulator cell potency, CTGlo-ATS, THP1.1, 72 h; format: cell-based; settings: payload; for GI50: THP1.1, read-out: CTGIo-ATS GMean GI50 (nM) 72 h THP1.1
NCIH1650.1 = assay: Herboxidiene splicing modulator cell potency, CTGlo-ATS, NCIH1650.1, 72 h; format: cell-based; settings: payload; for GI50: NCIH1650.1, read-out: CTGIo-ATS GMean GI50 (nM) 72 h NCIH1650.1
[1] = tested on: HCC1954 breast cancer cells; assay: Payload cell viability dose response (CellTiter-Glo 2.0), HCC1954 (Example 4); format: cell-based, human; settings: for GI50: Homo sapiens
Protocol: (§1) Cell viability dose response was determined for exemplary payload compounds in HER2-amplified HCC1954 breast cancer cells and NCI-N87 gastric cancer cells.
(§2) HCC1954 (American Type Culture Collection (ATCC)) breast ductal carcinoma or NCI-N87 (ATCC) gastric carcinoma cells were plated at 500 cells/well in flat bottom 384-well tissue culture plates (Corning) in a total volume of 30 μL tissue culture medium supplemented with 10% fetal bovine serum (ThermoFisher Scientific). Cells were treated with a 4-fold serial dilution of compound from 10000 nM to 0.01 nM. Each concentration was tested in triplicate. At the time of treatment, a plate of untreated cells was evaluated using CellTiter-Glo® 2.0 Luminescent Cell Viability Assay according to the manufacturer's recommendations (Promega; #G9241). CellTiter-Glo® 2.0 reagent was added to the medium, incubated, and assayed on an EnVision Multilabel Reader (PerkinElmer). Values represent time zero (T0). The number of viable cells following 72 (T72) or 144 hours (T144) of compound treatment was also determined using the CellTiter-Glo®2.0 Luminescent Cell Viability Assay. Using the luminescence value at time zero (T0), DMSO control growth (C), and test growth in the presence of compound (T72 or T144), the percentage growth was calculated at each of the compound concentrations levels. Percentage growth inhibition was calculated as (e.g.): [(T144−T0)/(C−T0)]×100 for concentrations for which T144>/=T0 or [(T144−T0)/T0]×100 for concentrations for which T144<T0. The dose response curve plots were generated using Prism 8 (Graphpad) and fit using nonlinear regression analysis and the log(inhibitor) versus response-variable slope (four parameters).

[2] = tested on: NCI-N87 gastric cancer cells; assay: Payload cell viability dose response (CellTiter-Glo 2.0), NCI-N87 (Example 4); format: cell-based, human; settings: for GI50: Homo sapiens
Protocol: as §1, §2

[3] = tested on: SLC25A19 mature transcript; assay: In-cell splicing PD assay, HCC1954; format: cell-based; settings: Homo sapiens, HCC1954, 6 h
Protocol: (§3) 4.1.2 In-Cell Splicing PD Assay
(§4) Splicing of the SLC25A19 mature transcript was also examined in HCC1954 and NCI-N87 cells treated with increasing concentrations of exemplary payload compounds.
(§5) HCC1954 or NCI-N87 cells (ATCC) were plated in RPM1+10% FBS media (ATCC) at 1000 cells per well at 20 μL per well. Cells were treated with compounds in a 4-fold dilution dose-response. After 6 hours, cells were PBS washed and lysed with 30 μL of CL buffer (IgePal CA-630, 5M NaCl, 1M Tris HCl 1M pH 7.4 in water) containing 25 μL/mL of RNAsin (Promega) and incubated for 20 min at RT on a rocker. Resulting mixture (1 μL) was used to assess splicing modulation in a Taqman Fast Virus 1-Step MasterMix (Applied Biosystems) reverse transcription PCR reaction with the following Taqman primers according to the manufacturer's recommendations: SLC25A19 (Invitrogen, Hs00222265_m1); RPLPO (Invitrogen, Hs99999902_m1).

[4] = tested on: SLC25A19 mature transcript; assay: In-cell splicing PD assay, NCI-N87; format: cell-based; settings: Homo sapiens, NCI-N87, 6 h
Protocol: as §3, §4, §5

[5] = HCC1954, 72 h, read-out: CTG 72 h GI50
[6] = HCC1954, 144 h, read-out: CTG 144 h GI50
[7] = NCI-N87, 72 h, read-out: CTG 72 h GI50
[8] = NCI-N87, 144 h, read-out: CTG 144 h GI50

| SMILES | IC50 (Ad2.2 pre-mRNA) [nM] | IC50 (Ad2.1) [nM] | CTGIo-ATS GMean LD50 (nM) 72 h THP1.1 (THP1.1) [nM] | CTGIo-ATS Mean MinResponse % 72 h THP1.1 (THP1.1) [%] | GI50 (THP1.1) [nM] | CTGIo-ATS GMean LD50 (nM) 72 h NCIH1650.1 (NCIH1650.1) [nM] | CTGIo-ATS Mean MinResponse % 72 h NCIH1650.1 (NCIH1650.1) [%] | GI50 (NCIH1650.1) [nM] | CTG 72 h LD50 ([1]; HCC1954, 72 h) [µM] | CTG 72 h Rmin ([1]; HCC1954, 72 h) [%] | CTG 144 h LD50 ([1]; HCC1954, 144 h) [µM] | CTG 144 h Rm in ([1]; HCC1954, 144 h) [%] | GI50 [1, 5] [µM] | GI50 [1, 6] [µM] | GI50 [2, 7] [µM] | GI50 [2, 8] [µM] | CTG 72 h LD50 ([2]; NCI-N87, 72 h) [µM] | CTG 72 h Rmin ([2]; NCI-N87, 72 h) [%] | CTG 144 h LD50 ([2]; NCI-N87, 144 h) [µM] | CTG 144 h Rmin ([2]; NCI-N87, 144 h) [%] | further results |
| --- | --- | --- | --- | --- | --- | --- | --- | --- | --- | --- | --- | --- | --- | --- | --- | --- | --- | --- | --- | --- | --- |
| CNC1CCN(C(=O)OCCCCCC(=O)NC[C@H]2CC[C@H](C)[C@@H](/C(C)=C/C=C/[C@@H](C)C[C@@]3(C)O[C@@H]3[C@H](C)[C@@H](OC)[C@@H](C)O)O2)C1 (stereo partly drawn) [Compound H7, 6-((((2R,5S,6S)-6-((S,2E,4E)-7-((2R,3R)-3-((2R,3R,4R)-4-hydroxy-3-methoxypentan-2-yl)-2-methyloxiran-2-yl)-6-methylhepta-2,4-dien-2-yl)-5-methyltetrahydro-2H-pyran-2-yl)methyl)amino)-6-oxohexyl 3-(methylamino)pyrrolidine-1-carboxylate] | 12.1 | 14.5 | 6.756 | −99.328 | 0.65 | >10000 | 5.754 | 0.772 | – | – | – | – | – | – | – | – | – | – | – | – | – |
| CO[C@H]([C@@H](C)[C@H]1O[C@]1(C)C[C@H](C)/C=C/C=C(\C)[C@H]1O[C@@H](CNC(=O)CCOCCOC(=O)N2CCNCC2)CC[C@@H]1C)[C@@H](C)O [Compound H8, 2-(3-((((2R,5S,6S)-6-((S,2E,4E)-7-((2R,3R)-3-((2R,3R,4R)-4-hydroxy-3-methoxypentan-2-yl)-2-methyloxiran-2-yl)-6-methylhepta-2,4-dien-2-yl)-5-methyltetrahydro-2H-pyran-2-yl)methyl)amino)-3-oxopropoxy)ethyl piperazine-1-carboxylate] | 12.9 | 12.9 | 11.851 | −102.030 | 1.22 | >10000 | 17.053 | 1.1 | – | – | – | – | – | – | – | – | – | – | – | – | – |
| CNC1CCN(C(=O)O[C@@H]2C[C@H](CC(=O)O)O[C@H](/C(C)=C/C=C/[C@@H](C)C[C@@]3(C)O[C@@H]3[C@H](C)[C@@H](OC)[C@@H](C)O)[C@H]2C)C1 (stereo partly drawn) [Compound H3, 2-((2R,4R,5S,6S)-6-((S,2E,4E)-7-((2R,3R)-3-((2R,3R,4R)-4-hydroxy-3-methoxypentan-2-yl)-2-methyloxiran-2-yl)-6-methylhepta-2,4-dien-2-yl)-5-methyl-4-((3-(methylamino)pyrrolidine-1-carbonyl)oxy)tetrahydro-2H-pyran-2-yl)acetic acid] | 35.2 | 562 | 478.332 | −92.943 | 54.6 | >10000 | 19.182 | 115 | – | – | – | – | – | – | – | – | – | – | – | – | – |
| CO[C@H]([C@@H](C)[C@H]1O[C@]1(C)C[C@H](C)/C=C/C=C(\C)[C@H]1O[C@@H](CC(=O)N[C@@H](CCOC(=O)N2CCN(C)CC2)C(=O)O)CC[C@@H]1C)[C@@H](C)O [Compound H14] | – | – | – | – | – | – | – | – | > 10 | −42.359 | 2.055923 | −95.522 | 0.626 | 0.682 | 0.415 | 0.73 | > 10 | −2.467 | 7.944263 | −63.41 | IC50 [3]: 1.35 µM; IC50 [4]: 0.962 µM |
| CO[C@H]([C@@H](C)[C@H]1O[C@]1(C)C[C@H](C)/C=C/C=C(\C)[C@H]1O[C@@H](CC(=O)NCCCC[C@@H](NC(=O)N2CCN(C)CC2)C(=O)O)CC[C@@H]1C)[C@@H](C)O [Compound H19] | – | – | – | – | – | – | – | – | > 10 | 32.813 | > 10 | 27.17 | 8.99 | 7.93 | > 10 | 3.27 | > 10 | 44.396 | > 10 | 17.442 | IC50 [3]: > 10 µM; IC50 [4]: > 10 µM |
